Values of other authors, collected in patent US6432966B1, “Antiviral combinations” (SmithKline Beecham Corporation, priority 1999, dated 2002).

How the values were obtained:
HBV [1] = test system: HBV
HBV [2] = conditions: in vitro
Hepatitis B virus = conditions: oral, woodchucks

Compound | patients maintaining undetectable levels of virus (HBV [1]; through to the end of the second year) [%] | levels of viral replication in patients (HBV [1]; two year study) | anti-HBV activity (HBV [2]) | efficacy against Hepatitis B virus (Hepatitis B virus)
Nc1ccn([C@@H]2CS[C@H](CO)O2)c(=O)n1 (relative stereo) [lamivudine, (2R,cis)-4-amino-1-(2-hydroxymethyl-1,3-oxathiolan-5-yl)-pyrimidin-2-one] | 52 | most patients showed substantially reduced levels of viral replication |  | 
C=C1[C@H](CO)[C@@H](O)C[C@@H]1n1cnc2c(=O)[nH]c(N)nc21 [BMS-200475] |  |  | anti-HBV activity in vitro | effective against Hepatitis B virus in woodchucks
